Results taken from US10882821B1, “Enantiomeric compound for the reduction of the deleterious activity of extended nucleotide repeat containing genes” (THE BOARD OF TRUSTEES OF THE LELAND STANFORD JUNIOR …, priority 2017, dated 2021).

What was measured:
[1] = target: T1, interaction between Supt4h and NGN (subunit of Supt5h) (Homo sapiens, UniProt P63272); test: split Gaussia luciferase complementation assay (M2-8 cells); format: cell-based; settings: for IC50: M2-8 cells, 24 hr treatment
T1 construct: expressed in transfected cells
Protocol: 1. Slit Gaussia Luciferase Complementation Assay […]
i pNBR-X1-Supt4-Gluc1 and pNEBR-X1-NGN-Guc2
The HA-Supt4hand Flag-NGN fragments are amplified by PR using the plasmid pHA-Supt4h-YC and pFlag-NGN-YN and sub-cloned individually into pcDNA3.1-Gluc1 and pcDNA3.1-GIuc2 (described in “A highly sensitive protein-protein interaction assay based on Gausssia Luciferase” published at Nat Methods. 2006 December; 3(12):977-9.Epub 2006 Nov. 12). Then HA-Supt4h-Gluc1 and Flag-NGN-Gluc2 are amplified by PCR and inserted to pNEBR-X1-Hygro (New England BioLabs), which contain RheoSwitch responsive element under the control of RheoSwitch ligand. […]
ii: pNEBR-X1-Supt4h-G1-NGN-G2
PCR products containing the sequence from 5XRE to polyA in pNEBR-X1-NGN-G2 are inserted to pNEBR-X1-Supt4h-G1 at Pcil site to generate Supt4h-G1 and NGN-G2 bidirectional under their own RheoSwitch responsive element and polyA in the same plasmid. […]
b. Stable Cloned Cell Line i: 293-R1 is a cloned cell which is engineered to constitutively express RSL1 receptor/activator by transfecting HEK 293 cells with pNEBR-R1 plasmid (New England BioLabs) and selected with Blasticidin. […]
ii: M2-8 is a cloned 293-R cell which can inducibly express pNEBR-X1-Supt4h-G1-NGN-G2 by addition of RSL1. Two point mutations (M431 and M1101) are introduced to the GL1 and GL2 for better stability according to “A high-throughput cell-based Gaussia luciferase reporter assay for identifying modulators of fibulin-3 secretion” published on J Biomol Screen. 2013 July; 18(6):647-58. The cell line is selected by Hygromycin. […]
c. Cell Culture and Transfection Condition
All the HEK-293 cells and derivative cell clones are maintained in DMEM containing 10% FBS plus corresponding antibiotics (250 μg/ml hygromycin B, 10 μg/ml blasticidin or both) at 37° C., 5% CO2. d. Bioluminescence Assay in Cell Lysates
For stable cell M2-8, the cells are plated into 96 well white plate directly. 24 hours later, RheoSwitch ligand together with/without test compound is added to the cells for induction/drug treatment. After 24 hr, the cells are washed with PBS and the plate was put in −20° C. freezer for overnight. After taking out the plate from freezer, lysis buffer (30 mM Tris-HCl, pH 8.0, 5 mM NaCl, 0.1% Triton X-100) with 10 μg/ml native coelenterazine (Nanolight Technology) is immediately added to the cells. The cells are lysed at room temperature for one hour in dark. After shaking for about 1 min, the signal intensities (integrated 100 ms) from the plate were read on Tecan Infinite M200 or M1000.
The split gaussia luciferase complementation assay measures the interaction between Sup4h and NGN. NGN is the subunit of Supt5h that binds to Supt4h. […] Therefore, administration of HD143 results in decreased production of mutant proteins encoded by genes that include mutant nucleotide repeats.

[2] = tested on: mutant HTT protein; test: mutant HTT activity assay in induced pluripotent stem cells (Western blot); format: cell-based, human; settings: HD patient iPSC; for effect on mutant HTT protein level in iPSC derived from a Huntington Disease patient: one day treatment, Western blot
Protocol: 3. Mutant HTT Activity Assay in Induced Pluripotent Stem Cells (iPSC)
Huntington disease patient iPSCs (ND36999 from Coriell Institute) were detached into single cells by Accutase (AT104 from Accutase) and plated on a 24-well plate coated with Matrigel (354277 from Corning). When the cells' confluency reaches about 70%, compounds are added to the cell culture medium StemMACS (130104368 from MiltenyiBiotec) and incubated with the cells for one day. Then the medium is removed and the cells are washed with PBS. After all liquid is removed, the plate is put in −80° C. for overnight. After taking out the plate from freezer, lysis buffer (30 mM Tris-HCl, pH 8.0, 5 mM NaCl, 0.1% Triton X-100) with complete proteinase inhibitor cocktail (5892791001 from Sigma-Aldrich) is immediately added to the cells. Cell samples are lysed on ice for 10 minutes. The supernatants from spinning (14 k rpm for 10 min) are collected. The protein concentrations are determined by BCA assay (Pierce, ThermoFisher). Equal amounts of protein are loaded onto 4-12% gel. After electrophoresis, the gels are transferred to nitrocellulose membranes by wet transfer at 35V for 16 hr. The protein level of mutant HTT, total HTT and tubulin are determined by immunoblotting with anti-poly Glutamine (MAB1574 from Millipore), anti-Huntingtin protein (MAB2166 from Millipore) and anti-alpha tubulin (AJ1034a from ABGENT). Blots are imaged on a Li-Cor Odyssey infrared imager. The bands intensities are determined by Li-Cor Odyssey software.
Using the protocol reported above, iPSCs were treated with HD143 at various doses for 24 hr. The cells were collected and lysed for protein quantification. Equal amounts of protein were applied on SDS-PAGE gel for Western Blotting. Mutant HTT protein was recognized by polyQ antibody (MAB1574 from Millipore) while wild type HTT protein was blotted by anti-Huntingtin antibody (MAB2166 from Millipore). Both proteins were scanned and quantified by Li-Cor Odyssey and normalized by tubulin.

[3] = tested on: mutant HTT in lymphoblastoid cells GM14044; test: HD lymphoblastoid cell assay to assess mutant HTT reduction; format: cell-based, human; settings: 72 hours
Protocol: 3. HD Lymphoblastoid Cell Assay to Assess Mutant HTT Reduction
Lymphoblastoid cells GM14044, which are derived from Juvenile HD patient with around 250 CAG repeats in the mutant HTT allele, are used for lymphoblastoid cell assays. Lymphoblastoid cells are cultured as suspension cells. Right before the compound treatments, 5×10^5 cells/well are seeded into 24 well plate in 1.5 ml RPMI culture medium plus 10% fetal bovine serum. Compounds in serial dilutions are added into the well for the indicated final concentration. Cells are maintained in 37° C., 5% CO2 incubator for 72 hours
b. Compound Effect in Reducing mHTT (IC50)
The rest of the cell/medium mixture is removed from culture plate into a 1.5 ml microcentrifuge tube, then centrifuged at 2500 rpm for 2 minutes to remove the culture medium. Cell pallets are washed with 1×PBS, then stored at −80° C. until ready for Western blot analysis. Western blot analysis is performed as described above. The intensity of HTT from untreated cells is set as 100% and the IC50 of the compound is defined as the compound concentration at which the HTT protein was reduced to 50%.

[4] = brain to plasma ratio after oral dose; format: in vivo; settings: at 1 hour following a 5 mg/kg oral dose in rats
[5] = tested on: Gmr-Htt97Q Drosophila HD model (mutant Htt); test: eye morphology (rough eye) analysis in Drosophila HD model; format: in vivo, Drosophila melanogaster; settings: Gmr-Htt97Q/+ flies, 10 or 100 μM in media
Protocol: The Drosophila melanogaster (fruit fly) HD models used in this set of experiments carry the coding sequence of human Httexon1 with 97 CAG repeats to mimic mutant Httof Huntington's disease (HD). The Gmr::Htt97Q fly, expressing mutant Htt primarily in the neurons of Drosophila compound eyes, has a severe degeneration of photoreceptor neurons and the phenotypic trait ‘rough eye’. All of the fly stocks and genetics crosses were maintained at 25° C. on standard cornmeal yeast agar media.
2. Eye Morphology (Rough Eye) Analysis
15 adult male flies (Gmr-Htt97Q/Gmr-Htt97Q or Gmr/Gmr) were crossed with 15 virgin female flies W1118(+/+) in a vial containing standard yeast agar media with testing compound (+)-HD143 in a concentration of 10 μM or 100 μM. Parent-flies were first removed from vials at day 7, followed by a collection of newly hatched flies for ‘rough eye’ analysis. The morphology of compound eyes was captured using a Leica DMR upright microscope equipped with a digital camera (CooISNAP 5.0, Photometrics). […]
FIG. 4A. The morphology of compound eye was analyzed in fruit flies treated with or without (+)-HD143. […] To quantify the appearance of “rough eye” in Gmr-Htt97Q/+ treated with 10 and 100 μM of (+)-HD143, ten flies were randomly picked from each group and the number of flies with “rough eye” phenotype were determined under microscope. […]

Brc1ccc2[nH]c3c(c2c1)CCCC3NCc1ccccc1 (racemic) [racemic HD143, N-benzyl-6-bromo-2,3,4,9-tetrahydro-1H-carbazol-1-amine]
IC50 [1]: 30 nM | effect on Supt4h/NGN interaction ([1]; split Gaussia luciferase complementation assay): interrupts the interaction between Sup4h and NGN | Dose to reduce mutant HTT in HD iPSC ([2]; 24 hr): >=60 nm | effect on mutant HTT protein level in iPSC derived from a Huntington Disease patient [2]: decreases mutant HTT protein | IC50 [3]: 90 nM | [Brain]/[Plasma] [4]: 9 at 1 hour following a 5 mg/kg oral dose in rats

Brc1ccc2[nH]c3c(c2c1)CCC[C@@H]3NCc1ccccc1.Cl [(S)-(−)-HD143, (S)-(−)-N-Benzyl-6-bromo-2,3,4,9-tetrahydro-1H-carbazol-1-amine Hydrochloride]
IC50 [1]: 900 nM | effect on mutant HTT protein level in iPSC derived from a Huntington Disease patient [2]: showed no activity

Brc1ccc2[nH]c3c(c2c1)CCC[C@H]3NCc1ccccc1 [(R)-(+)-HD143, (R)-(+)-N-benzyl-6-bromo-2,3,4,9-tetrahydro-1H-carbazol-1-amine]
IC50 [1]: 15 nM | fold more potent than racemic HD143 ([1]; ratio of IC50 values, split Gaussia luciferase assay): 2 fold | effect on mutant HTT protein level in iPSC derived from a Huntington Disease patient [2]: significantly reduced mutant HTT protein level | effect on neuron degeneration phenotypes (rough eye) of mutant Htt in Drosophila HD models [5]: alleviates neuron degeneration phenotypes | effect on neuron degeneration phenotypes (rough eye) of mutant Htt in Drosophila HD models ([5]; listed as (+)-HD143): Alleviates Neuron Degeneration Phenotypes
